Source: PubChem BioAssay (NCI)
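Compound exposure: 48 hours, 5 concentrations, 96-well plates. The concentration for 50% growth inhibition is given as GI50. TGI marks complete inhibition of growth.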

How the values were obtained:
Assay in all cases: growth of human tumour cells (NCI), 48 h
SNB-19 CNS = system: SNB-19 CNS
NCI-H522 lung = system: NCI-H522 lung
NCI-H226 lung = system: NCI-H226 lung
HCT-15 colon = system: HCT-15 colon
LOX IMVI melanoma = system: LOX IMVI melanoma
M14 melanoma = system: M14 melanoma
A498 renal = system: A498 renal
SF-268 CNS = system: SF-268 CNS
NCI-H460 lung = system: NCI-H460 lung
EKVX NSCLC = system: EKVX NSCLC
RPMI-8226 leukemia = system: RPMI-8226 leukemia
SN12C renal = system: SN12C renal
HL-60(TB) leukemia = system: HL-60(TB) leukemia
OVCAR-8 ovarian = system: OVCAR-8 ovarian
UACC-62 melanoma = system: UACC-62 melanoma
HS 578T breast = system: HS 578T breast
DU-145 prostate = system: DU-145 prostate
PC-3 prostate = system: PC-3 prostate
HOP-92 NSCLC = system: HOP-92 NSCLC
SW-620 colon = system: SW-620 colon
NCI/ADR-RES ovarian = system: NCI/ADR-RES ovarian
UO-31 renal = system: UO-31 renal
HCC-2998 colon = system: HCC-2998 colon
COLO 205 colon = system: COLO 205 colon
SK-MEL-28 melanoma = system: SK-MEL-28 melanoma
KM12 colon = system: KM12 colon
SR leukemia = system: SR leukemia
SK-MEL-5 melanoma = system: SK-MEL-5 melanoma
HCT-116 colon = system: HCT-116 colon
MDA-MB-435 = system: MDA-MB-435
MCF7 breast = system: MCF7 breast
HT29 colon = system: HT29 colon
HOP-62 NSCLC = system: HOP-62 NSCLC
U251 CNS = system: U251 CNS
MDA-MB-231 breast = system: MDA-MB-231 breast
OVCAR-5 ovarian = system: OVCAR-5 ovarian
MOLT-4 leukemia = system: MOLT-4 leukemia
NCI-H23 lung = system: NCI-H23 lung
BT-549 breast = system: BT-549 breast
T-47D breast = system: T-47D breast
SNB-75 CNS = system: SNB-75 CNS
UACC-257 melanoma = system: UACC-257 melanoma
SF-295 CNS = system: SF-295 CNS
CAKI-1 renal = system: CAKI-1 renal
SF-539 CNS = system: SF-539 CNS
RXF 393 renal = system: RXF 393 renal
ACHN renal = system: ACHN renal
TK-10 renal = system: TK-10 renal
786-0 renal = system: 786-0 renal
OVCAR-4 ovarian = system: OVCAR-4 ovarian
A549 NSCLC = system: A549 NSCLC
SK-MEL-2 melanoma = system: SK-MEL-2 melanoma
SK-OV-3 ovarian = system: SK-OV-3 ovarian
K-562 leukemia = system: K-562 leukemia
IGROV1 ovarian = system: IGROV1 ovarian
MALME-3M melanoma = system: MALME-3M melanoma
CCRF-CEM leukemia = system: CCRF-CEM leukemia
OVCAR-3 ovarian = system: OVCAR-3 ovarian

CCOC(=O)c1ccc(N2NC(=O)/C(=C/c3ccc([N+](=O)[O-])o3)C2=O)cc1
GI50 (SNB-19 CNS): > 44.8 µM | TGI (SNB-19 CNS): > 72.2 µM | GI50 (NCI-H522 lung): 4.18 µM | TGI (NCI-H522 lung): 8.53 µM | GI50 (NCI-H226 lung): > 41 µM | TGI (NCI-H226 lung): > 56.5 µM | GI50 (HCT-15 colon): 13.6 µM | TGI (HCT-15 colon): 31.5 µM | GI50 (LOX IMVI melanoma): 17.7 µM | TGI (LOX IMVI melanoma): 34.4 µM | GI50 (M14 melanoma): 17 µM | TGI (M14 melanoma): 31.6 µM | GI50 (A498 renal): > 37 µM | TGI (A498 renal): > 51.6 µM | GI50 (SF-268 CNS): 24.2 µM | TGI (SF-268 CNS): > 55.3 µM | GI50 (NCI-H460 lung): > 43.3 µM | TGI (NCI-H460 lung): > 60.7 µM | GI50 (EKVX NSCLC): > 37.7 µM | TGI (EKVX NSCLC): > 53.1 µM | GI50 (RPMI-8226 leukemia): 30.1 µM | TGI (RPMI-8226 leukemia): > 96.5 µM | GI50 (SN12C renal): 27.5 µM | TGI (SN12C renal): > 55.8 µM | GI50 (HL-60(TB) leukemia): 11.7 µM | TGI (HL-60(TB) leukemia): 47.4 µM | GI50 (OVCAR-8 ovarian): 27.8 µM | TGI (OVCAR-8 ovarian): > 64.2 µM | GI50 (UACC-62 melanoma): 19.9 µM | TGI (UACC-62 melanoma): 43 µM | GI50 (HS 578T breast): > 45.6 µM | TGI (HS 578T breast): > 75.1 µM | GI50 (DU-145 prostate): 18 µM | TGI (DU-145 prostate): 32.3 µM | GI50 (PC-3 prostate): 21.3 µM | TGI (PC-3 prostate): 55.8 µM | GI50 (HOP-92 NSCLC): 15.6 µM | TGI (HOP-92 NSCLC): 31.8 µM | GI50 (SW-620 colon): 4.3 µM | TGI (SW-620 colon): 9.38 µM | GI50 (NCI/ADR-RES ovarian): 25.9 µM | TGI (NCI/ADR-RES ovarian): > 71.8 µM | GI50 (UO-31 renal): 5.64 µM | TGI (UO-31 renal): 13.8 µM | GI50 (HCC-2998 colon): > 41.8 µM | TGI (HCC-2998 colon): > 56.5 µM | GI50 (COLO 205 colon): 4.06 µM | TGI (COLO 205 colon): 9.46 µM | GI50 (SK-MEL-28 melanoma): 18.6 µM | TGI (SK-MEL-28 melanoma): 36 µM | GI50 (KM12 colon): > 40.7 µM | TGI (KM12 colon): > 55.3 µM | GI50 (SR leukemia): 10.1 µM | TGI (SR leukemia): 57.8 µM | GI50 (SK-MEL-5 melanoma): > 40.4 µM | TGI (SK-MEL-5 melanoma): > 54.9 µM | GI50 (HCT-116 colon): 8.37 µM | TGI (HCT-116 colon): 21.4 µM | GI50 (MDA-MB-435): 15.1 µM | TGI (MDA-MB-435): 33 µM | GI50 (MCF7 breast): 17.4 µM | TGI (MCF7 breast): 35.9 µM | GI50 (HT29 colon): 15.8 µM | TGI (HT29 colon): 36.2 µM | GI50 (HOP-62 NSCLC): 29.9 µM | TGI (HOP-62 NSCLC): > 55.7 µM | GI50 (U251 CNS): 39.9 µM | TGI (U251 CNS): > 66.6 µM | GI50 (MDA-MB-231 breast): 22.5 µM | TGI (MDA-MB-231 breast): 52.9 µM | GI50 (OVCAR-5 ovarian): 19 µM | TGI (OVCAR-5 ovarian): 40.7 µM | GI50 (MOLT-4 leukemia): 11.3 µM | TGI (MOLT-4 leukemia): 53.1 µM | GI50 (NCI-H23 lung): 21 µM | TGI (NCI-H23 lung): 52.6 µM | GI50 (BT-549 breast): 20.1 µM | TGI (BT-549 breast): 39.7 µM | GI50 (T-47D breast): 8.92 µM | TGI (T-47D breast): 33.4 µM | GI50 (SNB-75 CNS): 27.6 µM | TGI (SNB-75 CNS): > 51.5 µM | GI50 (UACC-257 melanoma): 16 µM | TGI (UACC-257 melanoma): 30.8 µM | GI50 (SF-295 CNS): > 39 µM | TGI (SF-295 CNS): > 56.1 µM | GI50 (CAKI-1 renal): 5.76 µM | TGI (CAKI-1 renal): 13.6 µM | GI50 (SF-539 CNS): 18.8 µM | TGI (SF-539 CNS): 46 µM | GI50 (RXF 393 renal): 11.3 µM | TGI (RXF 393 renal): 26 µM | GI50 (ACHN renal): 8.27 µM | TGI (ACHN renal): 20.8 µM | GI50 (TK-10 renal): 9.04 µM | TGI (TK-10 renal): 23.2 µM | GI50 (786-0 renal): 19.1 µM | TGI (786-0 renal): 37.3 µM | GI50 (OVCAR-4 ovarian): 17 µM | TGI (OVCAR-4 ovarian): 30.9 µM | GI50 (A549 NSCLC): > 44.7 µM | TGI (A549 NSCLC): > 60.6 µM | GI50 (SK-MEL-2 melanoma): > 40.6 µM | TGI (SK-MEL-2 melanoma): > 55.4 µM | GI50 (SK-OV-3 ovarian): > 39.4 µM | TGI (SK-OV-3 ovarian): > 54.1 µM | GI50 (K-562 leukemia): 9.64 µM | TGI (K-562 leukemia): > 73.3 µM | GI50 (IGROV1 ovarian): 20 µM | TGI (IGROV1 ovarian): 41.4 µM | GI50 (MALME-3M melanoma): 15.6 µM | TGI (MALME-3M melanoma): 35.1 µM | GI50 (CCRF-CEM leukemia): 2 µM | TGI (CCRF-CEM leukemia): > 61.6 µM | GI50 (OVCAR-3 ovarian): 6.82 µM | TGI (OVCAR-3 ovarian): 17.1 µM
